In BindingDB's records for doi:10.1016/j.bmcl.2011.11.077 (The Broad Institute Probe Development Center, 2011):

Columns and labels:
[1] = Activation of GFP-tagged HIF1alpha expressed in human U2OS cells assessed as HIF1alpha nuclear translocation by high content imaging assay
[2] = biological target: T1, Hypoxia-inducible factor 1-alpha (Homo sapiens, UniProt Q16665); experiment: Activation of human HIF1alpha expressed in DFX-induced human U2OS cells incubated for 30 mins prior to DFX-induction measured after overnight incubation by luciferase reporter gene assay
[3] = Activation of human HIF1alpha expressed in human U2OS cells assessed as increase in VEGF expression by RT-PCR analysis
[4] = biological target: T1, Hypoxia-inducible factor 1-alpha; experiment: Activation of human HIF1alpha expressed in DFX-induced human U2OS cells incubated for 30 mins prior to DFX-induction measured after overnight incubation by luciferase reporter gene assay in presence of 50 uM iron
[5] = biological target: T1, Hypoxia-inducible factor 1-alpha; experiment: Activation of human HIF1alpha expressed in DFX-induced human U2OS cells incubated for 30 mins prior to DFX-induction measured after overnight incubation by luciferase reporter gene assay in presence of 50 uM zinc

T1 sequence (Q16665 whole entry): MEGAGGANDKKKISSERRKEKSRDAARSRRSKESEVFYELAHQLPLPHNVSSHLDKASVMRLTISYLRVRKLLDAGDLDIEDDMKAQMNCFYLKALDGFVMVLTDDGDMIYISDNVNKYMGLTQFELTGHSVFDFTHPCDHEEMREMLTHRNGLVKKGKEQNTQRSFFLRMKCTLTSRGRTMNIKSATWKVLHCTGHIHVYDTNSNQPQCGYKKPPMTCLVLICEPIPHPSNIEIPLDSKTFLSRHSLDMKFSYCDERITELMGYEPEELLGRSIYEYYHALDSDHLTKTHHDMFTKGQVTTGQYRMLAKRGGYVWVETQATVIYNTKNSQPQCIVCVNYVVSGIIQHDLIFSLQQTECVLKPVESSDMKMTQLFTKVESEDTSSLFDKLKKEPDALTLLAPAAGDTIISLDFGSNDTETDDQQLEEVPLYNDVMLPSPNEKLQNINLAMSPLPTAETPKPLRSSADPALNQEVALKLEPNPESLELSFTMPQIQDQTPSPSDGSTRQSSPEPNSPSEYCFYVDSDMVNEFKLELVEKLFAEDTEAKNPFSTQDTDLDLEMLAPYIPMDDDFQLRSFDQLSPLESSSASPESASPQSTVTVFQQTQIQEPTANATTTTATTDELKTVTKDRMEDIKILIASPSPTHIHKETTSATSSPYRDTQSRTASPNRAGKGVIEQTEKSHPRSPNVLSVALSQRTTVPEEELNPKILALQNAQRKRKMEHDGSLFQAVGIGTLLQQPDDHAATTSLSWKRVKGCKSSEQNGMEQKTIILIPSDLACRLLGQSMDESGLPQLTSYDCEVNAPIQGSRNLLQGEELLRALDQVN

Row | EC50 [1] | EC50 [2] | EC50 [3] | EC50 [4] | EC50 [5] | SMILES
1 | 5.41 µM | 22.4 µM | 7.55 µM | – | – | Cc1cccc(Nc2nc(-c3ccccn3)nnc2-c2ccccc2)n1
2 | 4.46 µM | 7.64 µM | 3.26 µM | – | – | c1ccc(-c2nnc(-c3ccccn3)nc2Nc2cnc3ccccc3n2)cc1
3 | 9.54 µM | 6.67 µM | 3.08 µM | – | – | Cc1ccccc1CNc1nc(-c2ccccn2)nnc1-c1ccccc1
4 | 2.39 µM | 5.41 µM | 2.91 µM | – | – | Cc1cccc(CNc2nc(-c3ccccn3)nnc2-c2ccccc2)c1
5 | 1.19 µM | 4.58 µM | 2.6 µM | – | – | Cc1ccc(CNc2nc(-c3ccccn3)nnc2-c2ccccc2)cc1
6 | 2.06 µM | 4.17 µM | 2.55 µM | – | – | C[C@H](Nc1nc(-c2ccccn2)nnc1-c1ccccc1)C1CCCCC1
7 | 1.2 µM | 6.73 µM | 1.88 µM | – | – | C[C@@H](Nc1nc(-c2ccccn2)nnc1-c1ccccc1)C1CCCCC1
8 | 7.67 µM | 29.5 µM | 8.38 µM | – | – | c1ccc(-c2nnc(-c3ccccn3)nc2NCC2CCOCC2)cc1
9 | 9.82 µM | 3.63 µM | 8.72 µM | – | – | c1ccc(CCNc2nc(-c3ccccn3)nnc2-c2ccccc2)cc1
10 | 9.84 µM | 17.5 µM | 9.6 µM | – | – | c1ccc(-c2nnc(-c3ccccn3)nc2NCCc2ccccn2)cc1
11 | 2.3 µM | 2.96 µM | 1.85 µM | – | – | Cc1ccc(CNc2nc(-c3ccccn3)nnc2-c2ccccc2)cc1C
12 | 1.49 µM | 2.33 µM | 2.77 µM | – | – | Clc1cccc(CNc2nc(-c3ccccn3)nnc2-c2ccccc2)c1
13 | 3.73 µM | 4.74 µM | 3.67 µM | – | – | COc1ccc(CNc2nc(-c3ccccn3)nnc2-c2ccccc2)cc1
14 | 6.27 µM | 4.15 µM | 3.92 µM | – | – | COc1cccc(CNc2nc(-c3ccccn3)nnc2-c2ccccc2)c1
15 | 0.6 µM | 1.71 µM | 1.12 µM | – | – | CC(C)(C)c1ccc(CNc2nc(-c3ccccn3)nnc2-c2ccccc2)cc1
16 | 5.02 µM | 26 µM | 4.35 µM | – | – | c1ccc(-c2nnc(-c3ccccn3)nc2NCc2cccnc2)cc1
17 | 7.62 µM | 27.8 µM | 6.45 µM | – | – | c1ccc(-c2nnc(-c3ccccn3)nc2NCc2ccccn2)cc1
18 | 0.5 µM | 2.49 µM | 2.57 µM | – | – | c1ccc(-c2cccc(CNc3nc(-c4ccccn4)nnc3-c3ccccc3)c2)cc1

Row | EC50 [1] | EC50 [2] | EC50 [3] | EC50 [4] | EC50 [5] | SMILES
19 | 1.4 µM | 1.12 µM | 1.63 µM | 15.6 µM | 5.01 µM | c1ccc(-c2ccc(CNc3nc(-c4ccccn4)nnc3-c3ccccc3)cc2)cc1
20 | 3.04 µM | 22 µM | 7.57 µM | – | – | O=C(NCCCCO)c1cc(-c2ccccc2)on1
21 | 16.6 µM | 24.9 µM | 21.5 µM | – | – | O=C(NCC1CC1)c1cc(-c2ccccc2)on1
22 | 4.27 µM | 12.7 µM | 6.21 µM | – | – | c1ccc(-c2nnc(-c3ccccn3)nc2NCC2CC2)cc1
23 | 2.46 µM | 4.74 µM | 3.45 µM | – | – | c1ccc(-c2nnc(-c3ccccn3)nc2NCC2CCCCC2)cc1
24 | 3.82 µM | 2.97 µM | 2.48 µM | – | – | CC(C)(C)CCNc1nc(-c2ccccn2)nnc1-c1ccccc1
25 | 10.5 µM | 25 µM | 10.6 µM | – | – | OCCCNc1nc(-c2ccccn2)nnc1-c1ccccc1
26 | 9.08 µM | 20.8 µM | 10 µM | – | – | c1ccc(-c2nnc(-c3ccccn3)nc2NCCN2CCOCC2)cc1
27 | 6.27 µM | 14.2 µM | 8.12 µM | – | – | c1ccc(-c2nnc(-c3ccccn3)nc2NCCCN2CCOCC2)cc1
28 | 11.6 µM | 22.9 µM | 12.1 µM | – | – | OCC1CCN(c2nc(-c3ccccn3)nnc2-c2ccccc2)CC1
29 | 10.2 µM | 21.9 µM | 8.69 µM | – | – | CN1CCN(c2nc(-c3ccccn3)nnc2-c2ccccc2)CC1
30 | 20 µM | 23.9 µM | 28 µM | – | – | O=C(NCCCN1CCOCC1)c1cc(-c2ccccc2)on1
31 | – | 8.85 µM | – | – | – | CCCCNC(=O)c1cc(-c2ccc(F)cc2)on1
32 | 4.62 µM | 7.13 µM | 6.15 µM | – | – | C=CCNc1nc(-c2ccccn2)nnc1-c1ccccc1 [6-phenyl-N-prop-2-enyl-3-(2-pyridinyl)-1,2,4-triazin-5-amine]
33 | 4.8 µM | 7.74 µM | 4.48 µM | – | – | c1ccc(CNc2nc(-c3ccccn3)nnc2-c2ccccc2)cc1 [GNF-Pf-100]
34 | 9.82 µM | 7.46 µM | 9.06 µM | – | – | CN(C)c1nc(-c2ccccn2)nnc1-c1ccccc1 [MLS000541553]
35 | 7.72 µM | 8.67 µM | 15.8 µM | – | – | O=C(NCCCn1ccnc1)c1cc(-c2ccccc2)on1 [MLS000708948]
36 | – | 17.8 µM | – | – | – | CC(=O)N(O)CCCCCNC(=O)CCC(=O)N(O)CCCCCNC(=O)CCC(=O)N(O)CCCCCN [N-[5-[[4-[5-[acetyl(hydroxy)amino]pentylamino]-4-oxobutanoyl]-hydroxyamino]pentyl]-N''-(5-aminopentyl)-N''-hydroxybutanediamide;methanesulfonic acid]
